A short description of data set [1]: Cytotoxicity against human Huh7.5 cells. The data set is classed as cell-based, Huh-7.
Data set [2] relates to Hepatitis C virus. The data set can be described thus: Antiviral activity against HCV2a J6/JFH1 infected in Huh7-5 cells assessed as inhibition of core protein dimerization by RT PCR. The data set is classed as functional, organism-based, Hepacivirus hominis, subtype 2a J6/JFH1.
In data set [3] the test system is Hepatitis C virus. The data set can be described thus: Antiviral activity against HCV2a J6/JFH1 infected in Huh7-5 cells at late T2 stage assessed as inhibition of core protein dimerization by RT PCR. It is filed as functional, organism-based, Hepacivirus hominis. The conditions noted are these: subtype 2a J6/JFH1, Huh7.5.
Data set [4] relates to Hepatitis C virus. The data set can be described thus: Antiviral activity against HCV2a J6/JFH1 infected in Huh7-5 cells at early T1 stage assessed as inhibition of core protein dimerization by RT PCR. The settings on record: subtype 2a J6/JFH1, Huh7.5. It is filed as functional, organism-based, Hepacivirus hominis.
Where [5] appears, read: Hepatitis C virus, subtype 2a J6/JFH1, Huh7.5, read-out: IC50.

One may read the CC50 as the concentration giving 50% cytotoxicity. Usually IC50 stands for the concentration that gives 50% inhibition. The term EC50 denotes the concentration giving half of the maximal effect.

The structures appear in SMILES notation.

With `CC#CCN1c2ccc(OC)cc2[C@]23CCC(=O)N(CCOC)C2=NC(C(=O)OC)=C(C(=O)OC)C13` (mixture of isomers), in data set [1] (Huh7.5 cells), the CC50 was more than 320 µM. Besides, the IC50 in the data set with Hepatitis C virus [2] (setting [5]) is 2000 nM. The EC50 with Hepatitis C virus [3] stood at 700 nM; in the data set on Hepatitis C virus [4], 4.9 µM.
On to `C=CCN1c2ccc(OC)cc2[C@]23CCC(=O)N(Cc4ccccc4)C2=NC(C(=O)OC)=C(C(=O)OC)C13` (mixture of isomers), for which the CC50 in data set [1] (Huh7.5 cells) came out at 127 µM. The IC50 in the data set on Hepatitis C virus [2] (setting [5]) was found to be 1400 nM. Besides, the EC50 in the data set with Hepatitis C virus [3] worked out at 3200 nM; with Hepatitis C virus [4] it was 2.3 µM.
As for `C=CCN1c2ccc(OC)cc2[C@]23CCC(=O)N(Cc4cc(OC)c(OC)c(OC)c4)C2=NC(C(=O)OC)=C(C(=O)OC)C13` (mixture of isomers), in data set [1] (Huh7.5 cells), the midpoint of cytotoxicity, the CC50, lay at 5.3 µM. Moreover, in the data set on Hepatitis C virus [2] (setting [5]), the IC50 worked out at 2000 nM. For the same compound, the EC50 with Hepatitis C virus [3] turned out to be 3000 nM; in the data set on Hepatitis C virus [4] it was 3.8 µM.
In data set [1] (huh-7), `COc1ccc2c(O[C@@H]3C[C@H]4C(=O)N[C@]5(C(=O)O)C[C@H]5/C=C\CCCCC[C@H](NC(=O)OC5CCCC5)C(=O)N4C3)cc(-c3csc(NC(C)C)n3)nc2c1` [CILUPREVIR] showed a CC50 of 5.3 µM. Moreover, the IC50 entry with Hepatitis C virus [2] (huh7-5) is “Not Active”. Besides, the EC50 turned out to be 71 nM in the data set with Hepatitis C virus [3] and 0.072 µM in the data set on Hepatitis C virus [4].
Compound `COC(=O)C1=C(C(=O)OC)C2N(C)c3ccc(OC)cc3[C@@]23C[C@@H](C(=O)OC)N(C(=O)CC(C)C)C3=N1` (mixture of isomers) registered a CC50 in data set [1] (Huh7.5 cells) of more than 320 µM. Besides, the IC50 in the data set with Hepatitis C virus [2] (setting [5]) worked out at 9300 nM. Moreover, the values for the EC50 in the data set on Hepatitis C virus [3] and with Hepatitis C virus [4] were 22200 nM and 14.8 µM, respectively.

These data come from ChEMBL document CHEMBL1156746, “New small molecule inhibitors of hepatitis C virus” (Bioorg Med Chem Lett, 2009).
